Results: patent EP0287830A1, “Alkanoic acid alkyl esters, method for their production and the application of aqueous emulsions of these esters in vaccines” (priority 1987, dated 1988)

Experiments:
[1] = Immunostimulatory and adjuvant effect in mouse test model; type: in vivo, Mäuse; conditions: as component of an oil-in-water emulsion, Mäusetestmodell
[2] = Tolerability of emulsions in guinea pig test model; type: in vivo, Meerschweinchen; conditions: Meerschweinchentestmodell

**Q.** What does the source list for Hexansäurehexylester [Verbindung 2]?
**A.** immunstimulatorische und adjuvante Wirkung [1]: immunstimulatorische und adjuvante Wirkung; Verträglichkeit der Emulsionen [2]: sehr gut verträglich
